Experimental data published in patent US20250188457A1, “COMPOSITIONS AND METHODS FOR THE TREATMENT OF GLIOBLASTOMA BY INHIBITION OF THE TFPI2-CD51-STAT6 SIGNALING AXIS” (Northwestern University, priority 2023, published 2025).

Legend:
HMC3 microglia [1] = experiment: Incucyte live-cell and scratch wound healing migration of microglia; assay type: cell-based, human; conditions: TFPI2 recombinant protein 20 ng/ml; AS1517499 25 nM
Procedure: The scratch-wound assay was performed (Ref. 74; incorporated by reference in its entirety). For tracking single cell movement, microglia were cultured in 96-well plates (Corning, #3599) with different treatments. Incucyte Live Cell Analysis System was used to record cell movement over time. The time-lapse images were reconstructed and analyzed using TrackMate (Refs. 75-76; incorporated by reference in its entirety). The speed of each individual cell was calculated by processing images with LoG detector and Linear Assignment Problem (LAP) tracker.

[2] = test system: CT2A cells and GSC272 cells; experiment: T cell-mediated cytotoxicity assay (LDH release); assay type: cell-based, human and mouse; conditions: TFPI2 recombinant protein 20 ng/ml; AS1517499 25 nM
Procedure: T cell-mediated cytotoxicity was determined by Cytotox96 non-radioactive cytotoxicity assay kit (Promega, #G1780) based on the release of lactate dehydrogenase (LDH). After expansion and activation, mouse primary CD8^+ T cells or human JURKAT T cells were collected. About 10^5 T cells were co-cultured with SIM-A9 microglia or PrhMG (1:1 ratio) treated with TFPI2 recombinant protein in the presence or absence of STAT6 inhibitor AS1517499 for 24 hrs. T cells (effector cells) were then collected for further co-culturing with CT2A cells or GSC272 cells (target cells) at different ratios (10000:1000, 5000:1000, 2500:1000, 1250:1000, 620:1000, 310:1000, 160:1000, 80:1000, 40:1000, 20:1000) for 5 hrs. Experimental groups and corresponding control groups, including effector cell spontaneous LDH release, target cell spontaneous LDH release, target cell maximum LDH release, volume correction control, and culture medium background control were set up following the manufacturer's instructions to evaluate T cell-mediated cytotoxicity on GSCs. Optical density (OD) was measured by a Biotek Synergy 2 SL Microplate Reader. The cytotoxicity was calculated by the formula: (experimental OD value-effector spontaneous OD value-target spontaneous OD value)/(target maximum OD value-target spontaneous OD value).

005 GSC and CT2A tumors = experiment: Survival of C57BL/6 mice implanted with 005 GSCs or CT2A cells; assay type: in vivo, mouse; conditions: anti-PD1 10 mg/kg i.p. on days 11, 14 and 17, MK-0429 30 mg/kg or AS1517499 10 mg/kg i.p. every other day
Procedure: Female C57BL/6 (#0000664), nude mice (#007850), and B6.12952(C)-Stat6tm1Gru/J mice (STAT6-KO; #005977) at 6 weeks of age were purchased from the Jackson Laboratory. Mice were grouped by 5 animals and maintained in a pathogen-free IVC System (San Diego, CA) for a week before the experiment. All animal experiments were performed with the approval of the Institutional Animal Care and Use Committee (IACUC) at Northwestern University. The intracranial xenograft tumor models were established (Refs. 11, 61; incorporated by reference in their entireties). Ketamine (100 mg/kg) and xylazine (20 mg/kg) were used for anesthetizing mice through intraperitoneal injection. Then a dental drill was used to open a small hole in the skull 1.2 mm anterior and 3.0 mm lateral to the bregma. A total volume of […] cells in FBS-free DMEM was injected into the right caudate nucleus 3 mm below the surface of the brain using a […] Hamilton syringe with an unbeveled 30-gauge needle. Total three doses of 20 mg/kg meloxicam were administrated before and after surgery through subcutaneous injection. After cancer cell implantation, mice were monitored for recording survival. Mice with neurological deficits or moribund appearance were sacrificed. Following the transcardiac perfusion with PBS and 4% paraformaldehyde (PFA), brains were removed and fixed in 4% PFA, and were processed for paraffin-embedded blocks or cryosectioning.

HMC3 microglia [3] = experiment: Human phospho-kinase antibody array; assay type: cell-based; conditions: 20 ng/ml TFPI2 recombinant protein
Procedure: After starvation for 24 hrs followed by TFPI2 recombinant protein treatment for 1 hr, HMC3 cell lysate was prepared using a lysis buffer with […]. Phosphorylation profiles of kinases were determined using Proteome Profiler Human Phospho-Kinase Array Kit (Bio-Techne, #ARY003C) as the instruction manual. Signal was detected under ChemiDoc Touch Imaging System (Bio-Rad).

[4] = biological target: T1, CD51 (integrin alpha V, ITGAV) on human microglia (HMC3 cell line, primary human microglia PrhMG) (human, UniProt P06756 31-1048); experiment: IP-MS: membrane proteins of PrhMG incubated with TFPI2 recombinant protein, immunoprecipitated with TFPI2 antibody, LC-MS; CD51 is one of the enriched membrane protein candidates
T1 construct: whole, on cells; Endogenous protein of human microglia; also called Integrin aV/CD51
Procedure: Permeabilized cells were centrifuged for 15 min at 16,000 g to remove the supernatant containing cytosolic proteins. The cell pellets were then incubated with 0.5 ml solubilization buffer at 4° C. for 30 min with constant mixing. Solubilized membrane and membrane-associated proteins were isolated by centrifuging at 16,000 g for 15 min at 4° C. Extracted membrane-associated proteins were proceeded for IP-MS pull-down assay. A total of […] cell membrane lysate was incubated with […] TFPI2 antibody (Abcam, #ab186747) or IgG control (Cell Signaling Technology, #2729) for 12 hrs with gentle rotation at 4° C. […] Protein A/G PLUS-Agarose (#sc-2003, Santa Cruz Biotechnology) were mixed with each sample on ice. The lysate bead mixture was incubated at 4° C. under rotary agitation for 4 hrs. The tubes were centrifuged to remove supernatant. The beads were then washed in lysis buffer three times to remove non-specific binding. After removing wash buffer, the complex was washed with pre-urea wash buffer (50 mM Tris pH 8.5, 1 mM EGTA, 75 mM KCl) to remove all residual supernatant. […] IP pulled-down samples were analyzed by LC-MS/MS using a Dionex UltiMate 3000 Rapid Separation nanoLC coupled to the Orbitrap Elite Mass Spectrometer (Thermo Fisher Scientific Inc, San Jose, CA). […]

T1 sequence (P06756 31-1048): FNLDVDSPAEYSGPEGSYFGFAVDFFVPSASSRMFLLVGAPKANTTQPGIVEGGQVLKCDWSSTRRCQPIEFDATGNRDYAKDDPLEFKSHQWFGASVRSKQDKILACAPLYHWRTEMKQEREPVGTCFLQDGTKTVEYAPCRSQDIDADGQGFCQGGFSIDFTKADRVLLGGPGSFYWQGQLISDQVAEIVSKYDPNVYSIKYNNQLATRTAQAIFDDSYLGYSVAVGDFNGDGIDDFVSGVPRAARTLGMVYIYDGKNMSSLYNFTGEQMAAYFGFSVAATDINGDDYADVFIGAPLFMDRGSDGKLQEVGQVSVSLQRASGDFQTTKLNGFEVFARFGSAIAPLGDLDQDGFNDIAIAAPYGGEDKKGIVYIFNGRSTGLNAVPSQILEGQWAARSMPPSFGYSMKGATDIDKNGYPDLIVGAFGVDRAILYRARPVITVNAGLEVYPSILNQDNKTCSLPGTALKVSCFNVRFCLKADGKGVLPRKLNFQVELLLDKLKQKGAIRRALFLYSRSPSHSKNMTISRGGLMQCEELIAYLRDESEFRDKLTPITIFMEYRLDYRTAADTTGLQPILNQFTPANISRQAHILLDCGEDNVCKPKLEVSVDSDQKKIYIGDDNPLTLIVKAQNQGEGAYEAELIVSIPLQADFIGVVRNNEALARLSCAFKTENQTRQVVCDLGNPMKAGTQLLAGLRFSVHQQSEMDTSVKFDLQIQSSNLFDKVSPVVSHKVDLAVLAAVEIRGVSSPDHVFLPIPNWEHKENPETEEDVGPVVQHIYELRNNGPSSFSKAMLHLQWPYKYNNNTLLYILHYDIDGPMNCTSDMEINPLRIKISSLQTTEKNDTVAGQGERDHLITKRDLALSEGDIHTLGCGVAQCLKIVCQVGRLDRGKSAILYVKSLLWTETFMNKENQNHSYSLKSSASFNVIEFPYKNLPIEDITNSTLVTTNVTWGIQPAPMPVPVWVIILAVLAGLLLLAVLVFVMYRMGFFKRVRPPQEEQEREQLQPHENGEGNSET

Molecule: NC(=O)c1cnc(NCCc2ccc(O)c(Cl)c2)nc1NCc1ccccc1 [AS1517499]
- TFPI2-induced HMC3 microglia migration, incucyte live-cell and scratch assays (HMC3 microglia [1]): impairment
- suppression of T cell-mediated tumor cell cytotoxicity by TFPI2-polarized microglia [2]: rescued
- survival of mice bearing 005 GSC and CT2A tumors, combination with anti-PD1 therapy (005 GSC and CT2A tumors): synergized

B1: TFPI2 recombinant protein (tissue factor pathway inhibitor 2; BioVision, #7481-10) (ligand, UniProt P48307 23-235, looked up)
chain: DAAQEPTGNNAEICLLPLDYGPCRALLLRYYYDRYTQSCRQFLYGGCEGNANNFYTWEACDDACWRIEKVPKVCRLQVSVDDQCEGSTEKYFFNLSSMTCEKFFSGGCHRNRIENRFPDEATCMGFCAPKKIPSFCYSPKDEGLCSANVTRYYFNPRYRTCDAFTYTGCGGNDNNFVSREDCKRACAKALKKKKKMPKLRFASRIRKIRKKQF
notes: Bought recombinant protein added to microglia at 20 ng/ml; also called recombinant TFPI2; secreted TFPI2
- kinases STAT6 and AKT in phospho-kinase array (HMC3 microglia [3]): activated
- fold change in TFPI2 IP group versus control IgG group [4]: ≥ 2 fold
